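How tested: cells in 96-well plates exposed to compound for 48 hours at five concentrations. The concentration for 50% growth inhibition is given as GI50.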 Active and inactive are the calls of the source. No stated cut-off is given here; in the data, active = GI50 up to about 1.1 µM and inactive = higher.

Some test systems named below: SR; HCT-15; ACHN; SNB-19; NCI-H522; OVCAR-8; HCC 2998; LOX IMVI; CAKI-1; SNB-75; COLO 205; NCI-H226; UACC-257; SF-268; RXF 393.
Holding throughout (assay): NCI-60 cell line screen, 48 h

On to `COc1ccc(-c2cc(O)c3cc4c(cc3n2)OCO4)c(OC)c1`, for which the GI50 in the assay on SR is 22.1 µM (inactive); in the assay with HCT-15, 38.9 µM; in the assay on ACHN, 37.1 µM (inactive); in the assay on SNB-19, 67.6 µM (inactive); in the assay with NCI-H522 it was 46.9 µM (inactive); with OVCAR-8, 96.6 µM (inactive). The GI50 in the assay with HCC 2998 was 50.7 µM (inactive); with LOX IMVI, 47.9 µM (inactive); in the assay with CAKI-1, > 100 µM (inactive); with SNB-75, 4.4 µM (inactive); in the assay with COLO 205 it was 46.2 µM (inactive).
Take `COc1cc2c(c(OC)c1OC)-c1ccc(SC)c(=O)cc1[C@@H](NC(=O)c1ccc(F)cc1)CC2`: the GI50 is 0.0381 µM (active) in the assay with NCI-H226; < 0.01 µM (active) in the assay on UACC-257; 0.0467 µM (active) with ACHN; < 0.01 µM (active) in the assay with NCI-H522; 0.053 µM (active) with OVCAR-8; 0.0455 µM (active) in the assay with SF-268. In addition, the GI50 was 0.0284 µM (active) in the assay with HCC 2998, 0.0501 µM (active) with LOX IMVI, 0.07 µM (active) in the assay with SNB-75 and 0.0206 µM (active) in the assay on COLO 205.
For the compound `CC(C)=CC1CCc2ccccc2N1S(=O)(=O)c1ccc(C)cc1` (configuration not stated), the GI50 with HCT-15 is 1.09 µM; in the assay with NCI-H226, 1.77 µM (inactive); with UACC-257, 2.27 µM (inactive); in the assay with ACHN, 3.31 µM (inactive); in the assay on SNB-19, 3.46 µM (inactive); in the assay on NCI-H522 it was 1.52 µM (inactive). The GI50 in the assay on OVCAR-8 was 2.72 µM (inactive); in the assay with SF-268 it was 2.93 µM (inactive); in the assay on HCC 2998, 1.27 µM (inactive); with LOX IMVI, 1.68 µM (inactive); with RXF 393 it was 1.24 µM (inactive); in the assay with SNB-75 it was 1.17 µM (inactive). In the assay on COLO 205, the GI50 is 1.06 µM (active).
Regarding `N/N=C1/C(=O)N(c2ccc(Cl)cc2)C(=O)C(=O)C1c1nc2ccccc2s1` (configuration not stated), the GI50 was 72.1 µM with HCT-15; > 100 µM (inactive) with UACC-257; > 100 µM (inactive) in the assay with ACHN; > 100 µM (inactive) with SNB-19; > 100 µM (inactive) in the assay on NCI-H522; > 100 µM (inactive) in the assay with OVCAR-8. Moreover, the GI50 in the assay with SF-268 is > 100 µM (inactive); with HCC 2998, > 100 µM (inactive); with LOX IMVI, > 100 µM (inactive); in the assay with CAKI-1, > 68.2 µM (inactive); with RXF 393 it was > 100 µM (inactive); in the assay with SNB-75 it was > 65.6 µM (inactive). Besides, the GI50 in the assay on COLO 205 was > 100 µM (inactive).
Take `Cn1cc(C2(C)CC(C)(C)c3c2n(C)c2ccccc32)c2ccccc21` (configuration not stated): the GI50 is more than 100 µM with HCT-15; 90.2 µM (inactive) in the assay with NCI-H226; > 100 µM (inactive) in the assay with UACC-257; > 100 µM (inactive) with SNB-19; 40.3 µM (inactive) with NCI-H522; > 100 µM (inactive) in the assay with OVCAR-8. In addition, the GI50 in the assay on SF-268 was > 100 µM (inactive); in the assay with HCC 2998, 52.4 µM (inactive); in the assay on LOX IMVI, > 100 µM (inactive); in the assay with CAKI-1 it was > 100 µM (inactive); with RXF 393 it was 32.5 µM (inactive); in the assay on SNB-75, > 100 µM (inactive). Also, in the assay on COLO 205, the GI50 was > 100 µM (inactive).
With `O=C1CCCCC/C=C2/CC[C@H](Sc3ccccc3)[C@@H]12`, the GI50 with SR was 55.2 µM (inactive); in the assay on HCT-15 it was more than 100 µM; in the assay with NCI-H226, > 100 µM (inactive); in the assay with UACC-257, > 100 µM (inactive); with ACHN, 42.5 µM (inactive); in the assay with SNB-19, 73.8 µM (inactive). Besides, the GI50 in the assay with OVCAR-8 is 74.1 µM (inactive); with SF-268, 88.5 µM (inactive); in the assay with LOX IMVI it was 43 µM (inactive); in the assay on RXF 393, 37.8 µM (inactive); in the assay on SNB-75 it was 36.8 µM (inactive); with COLO 205, > 100 µM (inactive).
Turning to `COC(=O)CCc1cccnc1/C=N/O`, the GI50 was > 100 µM (inactive) in the assay on SR; more than 100 µM in the assay with HCT-15; > 100 µM (inactive) in the assay on NCI-H226; > 100 µM (inactive) with UACC-257; > 100 µM (inactive) in the assay on ACHN; > 100 µM (inactive) in the assay with SNB-19. In addition, the GI50 in the assay with NCI-H522, with OVCAR-8, in the assay on SF-268, with LOX IMVI, in the assay on CAKI-1 and in the assay on RXF 393 was > 100 µM (inactive) each time. In addition, the GI50 with SNB-75 and in the assay with COLO 205 was > 100 µM (inactive) each time.
As for `C=C1C(=O)OC2C1CC[C@H](C)C1(O)C(O)CC(=O)[C@@]21C` (some centres not stated), the GI50 with SR was 17.1 µM (inactive); with NCI-H226 it was 21.7 µM (inactive); with UACC-257, 14.4 µM (inactive); in the assay with ACHN it was 19.5 µM (inactive); with SNB-19, 52 µM (inactive); in the assay with OVCAR-8, 17.4 µM (inactive). Besides, the GI50 is 23.3 µM (inactive) in the assay on SF-268; 24 µM (inactive) in the assay with HCC 2998; 27.7 µM (inactive) in the assay with CAKI-1; > 10 µM (inactive) in the assay on RXF 393; 24.7 µM (inactive) in the assay with SNB-75; 16.3 µM (inactive) in the assay on COLO 205.
With `O=C(CN1CCCCC1)N1CCc2c([nH]c3ccccc23)C1c1cccnc1` (configuration not stated), the GI50 was more than 100 µM with HCT-15; > 100 µM (inactive) with UACC-257; > 100 µM (inactive) in the assay on ACHN; > 100 µM (inactive) in the assay on SNB-19; > 100 µM (inactive) in the assay with NCI-H522; > 100 µM (inactive) in the assay with OVCAR-8. In addition, the GI50 with SF-268 was > 100 µM (inactive); in the assay with HCC 2998, > 100 µM (inactive); in the assay on LOX IMVI it was > 100 µM (inactive); with CAKI-1, > 100 µM (inactive); in the assay on RXF 393, 40.5 µM (inactive); in the assay with SNB-75 it was > 100 µM (inactive).
`Cn1nc(-c2ccccc2)c(C(=O)/C=C/c2ccc(Cl)cc2)c(N2CCCCC2)c1=O`: the GI50 was 2.98 µM with HCT-15; 1.92 µM (inactive) in the assay with ACHN; 2.14 µM (inactive) with SNB-19; 1.85 µM (inactive) in the assay with NCI-H522; 3.8 µM (inactive) in the assay with OVCAR-8; 2 µM (inactive) in the assay with SF-268. Also, the GI50 with LOX IMVI is 2.41 µM (inactive); in the assay on CAKI-1, 0.826 µM (active); in the assay with RXF 393 it was 1.32 µM (inactive); in the assay on COLO 205 it was 2.23 µM (inactive).
Take `c1ccc(OCCSCCCCCCCCCCSCCOc2ccccc2)cc1`: the GI50 in the assay with HCT-15 is more than 100 µM; in the assay on NCI-H226, > 100 µM (inactive); with UACC-257, > 100 µM (inactive); in the assay on ACHN it was 48.1 µM (inactive); in the assay on SNB-19 it was > 100 µM (inactive); in the assay on NCI-H522 it was > 100 µM (inactive). In addition, the GI50 is 61.2 µM (inactive) in the assay on OVCAR-8; > 100 µM (inactive) with SF-268; > 100 µM (inactive) in the assay on HCC 2998; > 100 µM (inactive) in the assay with LOX IMVI; > 100 µM (inactive) in the assay on RXF 393; > 100 µM (inactive) with SNB-75. The GI50 in the assay with COLO 205 was > 100 µM (inactive).
As for `Cc1ccc(/C=C2\CCCC\C2=N\O)cc1`, the GI50 in the assay on HCT-15 is 44.6 µM; with ACHN, 37.8 µM (inactive); in the assay on SNB-19, 53 µM (inactive); in the assay with OVCAR-8 it was 59.3 µM (inactive); in the assay on SF-268 it was 51.2 µM (inactive); with HCC 2998 it was 19.9 µM (inactive). The GI50 in the assay on LOX IMVI is 58.7 µM (inactive); with CAKI-1 it was 56.6 µM (inactive); in the assay with SNB-75, 26.2 µM (inactive); in the assay with COLO 205, 81.5 µM (inactive).
As to `Cc1c(C(=O)/C=C/c2ccccc2Cl)[n+]([O-])c2ccccc2[n+]1[O-]`, the GI50 was 16.6 µM (inactive) in the assay with SR; 10.1 µM in the assay on HCT-15; 15.3 µM (inactive) with NCI-H226; 13.4 µM (inactive) with UACC-257; 17.2 µM (inactive) in the assay on ACHN; 17.3 µM (inactive) in the assay on SNB-19. For the same compound, the GI50 with NCI-H522 was 11.2 µM (inactive); in the assay with OVCAR-8, 13.3 µM (inactive); in the assay on CAKI-1, 3.24 µM (inactive); in the assay on SNB-75, 16.4 µM (inactive); with COLO 205 it was 15.5 µM (inactive).
Consider `COC(=O)C1=C(C)N(NC(N)=O)C(C)(O)C12CCOC2=O` (configuration not stated), for which the GI50 is more than 100 µM in the assay on HCT-15; > 100 µM (inactive) in the assay on NCI-H226; > 100 µM (inactive) in the assay on UACC-257; > 100 µM (inactive) with ACHN; > 100 µM (inactive) in the assay with SNB-19; > 100 µM (inactive) in the assay on NCI-H522. Moreover, the GI50 in the assay with OVCAR-8 was > 100 µM (inactive); in the assay with SF-268, > 100 µM (inactive); in the assay on HCC 2998 it was < 0.01 µM (active); in the assay with LOX IMVI it was > 100 µM (inactive); in the assay with CAKI-1, > 100 µM (inactive); in the assay on COLO 205, > 100 µM (inactive).
In the case of `COc1ccccc1NC(=O)C1=C(C)NC(C)=C(C(=O)Nc2ccccc2OC)C1c1ccccc1F`, the GI50 with SR is 64.7 µM (inactive); in the assay with HCT-15, 98.6 µM; in the assay with NCI-H226, > 100 µM (inactive); with UACC-257 it was > 100 µM (inactive); in the assay on ACHN, 51.6 µM (inactive); with SNB-19, > 100 µM (inactive). Further, the GI50 in the assay on OVCAR-8 is > 100 µM (inactive); in the assay with SF-268 it was > 100 µM (inactive); with HCC 2998, > 100 µM (inactive); in the assay on LOX IMVI, > 100 µM (inactive); with CAKI-1, > 100 µM (inactive); in the assay with SNB-75, 18 µM (inactive). Further, in the assay with COLO 205, the GI50 is > 100 µM (inactive).
As to `[O-][S+]1c2ccc(Cl)cc2CC(SSC2Cc3cc(Cl)ccc3[S+]([O-])c3ccccc32)c2ccccc21` (configuration not stated), the GI50 in the assay with NCI-H226, in the assay on UACC-257, in the assay with ACHN, in the assay on SNB-19, in the assay with NCI-H522 and with OVCAR-8 was > 100 µM (inactive) each time. For the same compound, the GI50 in the assay with SF-268, with HCC 2998, in the assay on LOX IMVI, in the assay with CAKI-1, in the assay on RXF 393 and in the assay on SNB-75 was > 100 µM (inactive) throughout. Besides, the GI50 in the assay on COLO 205 is > 100 µM (inactive).
